Results from US8541645B2, “Animal model for cigarette-smoke-induced atherosclerosis and related methods” (University of Calcutta, priority 2009, dated 2013).

Tests used:
[1] = test system: scurvy; settings: dietary; cited from earlier work
[2] = test system: CS-induced atherosclerosis in guinea pig aorta; test: Cigarette-smoke-induced atherosclerosis in guinea pig aorta (H&E and Oil red O staining of aortic sections); type: in vivo; settings: dietary supplementation of vitamin C 5 mg/day in addition to CS exposure; aortic sections stained with H&E or Oil red O (FIG. 3)
Experimental: Two to six, preferably three to four, month old male guinea pigs weighing between about 350 to about 450 grams (g) are used. All animals are maintained on a vitamin C-free diet for 7 days in order to minimize the in vivo levels of vitamin C in plasma and tissues. After 7 days of vitamin C deprivation, the guinea pigs are given a dietary supplementation of about 1 milligram (mg) of vitamin C per day (1 mg vitamin C/day) to prevent the onset of scurvy. (It is known that a dose of 0.8 mg vitamin C/day is sufficient to maintain guinea pigs without the development of scurvy.) Thereafter, the guinea pigs are subjected to cigarette smoke exposure (3 cigarettes per animal per day (3 cigarettes/animal/day) with 2 puffs per cigarette (2 puffs/cigarette)). Two puffs per cigarette indicate that the burning of a cigarette is divided into two halves. In each half, animals are exposed to cigarette smoke for a period of 1 minute (min.). There is an interval of 1 min. between these two halves. During this interval, animals are exposed to normal atmospheric air. Likewise, 3 puffs/cigarette would indicate that the burning of a cigarette is divided into three approximately equal parts with two intervals in between. […]

O=C1O[C@H]([C@@H](O)CO)C(O)=C1O [vitamin C, L-ascorbic acid]
dose sufficient to maintain guinea pigs without the development of scurvy [1]: 0.8 mg vitamin C/day | effect on CS-induced atherogenic changes in guinea pig aorta [2]: prevents CS-induced atherogenic changes
